# Test results taken from US3997403A, “Antibiotic G-418 and the production thereof” (Schering Corporation, priority 1975, dated 1976).
# Experiments:
# Streptococcus sp. C = assay: In Vitro Antibacterial Activity (Table IV); assay type: cell-based; conditions: Tryptose Phosphate Broth pH 7.2 - 7.5, read-out: MIC (Minimum Inhibitory Concentration)
# Description: (§1) In Table IV and Table V are set forth the in vitro antibacterial spectrum of Antibiotic G-418 against a variety of gram-positive and gram-negative bacteria using standard art recognized methods.
# (§2) *Minimum Inhibitory Concentration -- Medium: Tryptose Phosphate Broth pH
# [1] = test system: Staphylococcus aureus 209P; assay: In Vitro Antibacterial Activity (Table IV); assay type: cell-based; conditions: S. aureus 209P, Tryptose Phosphate Broth pH 7.2 - 7.5, read-out: MIC (Minimum Inhibitory Concentration)
# Description: as §1, §2
# Escherichia coli 894 = assay: In Vitro Antibacterial Activity (Table IV); assay type: cell-based; conditions: E. coli 894, Tryptose Phosphate Broth pH 7.2 - 7.5, read-out: MIC (Minimum Inhibitory Concentration)
# Description: as §1, §2
# [2] = test system: Staphylococcus aureus Wood; assay: In Vitro Antibacterial Activity (Table IV); assay type: cell-based; conditions: S. aureus Wood, Tryptose Phosphate Broth pH 7.2 - 7.5, read-out: MIC (Minimum Inhibitory Concentration)
# Description: as §1, §2
# [3] = test system: Pseudomonas aeruginosa 37; assay: In Vitro Antibacterial Activity (Table IV); assay type: cell-based; conditions: P. aeruginosa 37, Tryptose Phosphate Broth pH 7.2 - 7.5, read-out: MIC (Minimum Inhibitory Concentration)
# Description: as §1, §2
# Acute Toxicity = assay: Acute Toxicity; design: species or system Carworth Farms CF-1 mice; conditions: mouse, in vivo, iv, I.V.
# E. Histolytica = assay: Oral activity against experimental cecal E. Histolytica infections in rats; assay type: in vivo, male Royal Hart rats; conditions: for A.D.I. (average degree of infection): scale 0 to 4, controls averaged 2.2
# Description: Table VII and Table VIII set forth in vivo test results which illustrate the antiprotozoal activity of Antibiotic G-418. The host for the tests were recently weaned male Royal Hart rats (3-4 weeks old) weighing about 50-70 g. The test procedure is a modification of one described by R. J. Schnitzer on pages 355-443 in Experimental Chemotherapy, Vol. 1, Academic Press, New York (1963).
# *A.D.I. -- defined as the average degree of infection based upon gross
# observations of pathological changes in the cecum and microscopic
# observations of the number of amoebae found. These observations are
# recorded on a scale of from zero to four, zero representing a
# substantially normal cecum. Untreated but infected controls range from
# about two to four. In the data set forth the controls averaged 2.2.
# [4] = test system: Staphylococcus aureus Gray; assay: In vivo protective activity in infected mice; design: species or system Carworth Farms CF-1 mice; conditions: dosed 1 hour after i.p. lethal infection, survival at 48 hours
# Description: (§3) In Table VI is set forth in vivo antibacterial data obtained with Antibiotic G-418. The host animals used to obtain the data were Carworth Farms CF-1 mice weighing about 18-20 g. In vivo protection (PD50) is determined by injecting the mice (in groups of seven) intraperitoneally with a lethal dose of pathogenic bacteria. The mice are dosed with Antibiotic G-418 1 hour later. The non-protected controls die in 18-24 hours whereas the survivors are alive 48 hours after infection when the test is terminated. The data is analyzed by standard probit procedures to determine PD50 values with 95% confidence limits.
# [5] = test system: Staphylococcus aureus St. M No. 1; assay: In vivo protective activity in infected mice; design: species or system Carworth Farms CF-1 mice; conditions: S.C., dosed 1 hour after i.p. lethal infection, survival at 48 hours
# Description: as §3
# [6] = test system: Pseudomonas aeruginosa No. 1; assay: In vivo protective activity in infected mice; design: species or system Carworth Farms CF-1 mice; conditions: S.C., dosed 1 hour after i.p. lethal infection, survival at 48 hours
# Description: as §3
# Eschericia coli Sc. = assay: In vivo protective activity in infected mice; design: species or system Carworth Farms CF-1 mice; conditions: S.C., dosed 1 hour after i.p. lethal infection, survival at 48 hours
# Description: as §3
smiles,measurement,setting,value
CN[C@@H]1[C@@H](O)[C@@H](O[C@@H]2[C@@H](O)[C@H](O[C@H]3O[C@H]([C@@H](C)O)[C@@H](O)[C@H](O)[C@H]3N)[C@@H](N)C[C@H]2N)OC[C@]1(C)O [Antibiotic G-418],MIC,Streptococcus sp. C,> 25 µg/mL
same,MIC,[1],0.8 µg/mL
same,MIC,Escherichia coli 894,7.5 µg/mL
same,MIC,[2],0.8 µg/mL
same,MIC,[3],17.5 µg/mL
same,LD50,Acute Toxicity,140 mg/kg
same,Parasitological Cure Negative/Total,"E. Histolytica; oral 3.5 mg/kg/day, 3 days",0/7
same,A.D.I. (average degree of infection),"E. Histolytica; oral 3.5 mg/kg/day, 3 days",1.7
same,Parasitological Cure Negative/Total,"E. Histolytica; oral 3.5 mg/kg/day, 6 days",5/6
same,A.D.I. (average degree of infection),"E. Histolytica; oral 3.5 mg/kg/day, 6 days",0.2
same,Parasitological Cure Negative/Total,"E. Histolytica; oral 6.5 mg/kg/day, 1 day",2/5
same,A.D.I. (average degree of infection),"E. Histolytica; oral 6.5 mg/kg/day, 1 day",1.0
same,Parasitological Cure Negative/Total,"E. Histolytica; oral 6.5 mg/kg/day, 3 days",4/5
same,A.D.I. (average degree of infection),"E. Histolytica; oral 6.5 mg/kg/day, 3 days",0.4
same,Parasitological Cure Negative/Total,"E. Histolytica; oral 6.5 mg/kg/day, 6 days",4/4
same,A.D.I. (average degree of infection),"E. Histolytica; oral 6.5 mg/kg/day, 6 days",0
same,Parasitological Cure Negative/Total,"E. Histolytica; oral 10 mg/kg/day, 1 day",4/7
same,A.D.I. (average degree of infection),"E. Histolytica; oral 10 mg/kg/day, 1 day",0.7
same,Parasitological Cure Negative/Total,"E. Histolytica; oral 10 mg/kg/day, 3 days",7/7
same,A.D.I. (average degree of infection),"E. Histolytica; oral 10 mg/kg/day, 3 days",0
same,Parasitological Cure Negative/Total,"E. Histolytica; oral 12.5 mg/kg/day, 6 days",24/24
same,A.D.I. (average degree of infection),"E. Histolytica; oral 12.5 mg/kg/day, 6 days",0
same,Parasitological Cure Negative/Total,"E. Histolytica; oral 25 mg/kg/day, 6 days",19/19
same,A.D.I. (average degree of infection),"E. Histolytica; oral 25 mg/kg/day, 6 days",0
same,PD50,[4]; Oral,40 mg/kg
same,PD50,[4]; S.C.,2.5 mg/kg
same,PD50,[5],3.0 mg/kg
same,PD50,[6],5.0 mg/kg
same,PD50,Eschericia coli Sc.,1.5 mg/kg
